Entries after “also recorded” stand apart in the source; their conditions may differ.
Legend:
[1] = tested on: neuropathic rats; assay: EEG/EMG recording of wakefulness, NREM and REM sleep in neuropathic rats; format: in vivo, male Wistar rats; conditions: for REM sleep (total time), relative to NP rats treated with vehicle / total NREM sleep, relative to NP rats treated with vehicle / total time of wakefulness, relative to NP rats treated with vehicle: WAY 100635 2 mg/kg; for block of the hypnotic effects of CBD (20 mg/kg): WAY 100635 2 mg/kg i.p. 10 min before CBD
Method: Animals. The experiments were performed on male Wistar rats weighing 250 g (six weeks). All animals were housed in standardized animal facilities under a 12 h light/dark cycle (lights on at 7 AM) with ad libitum access to food and water. All surgeries and experimental procedures were performed during the light cycle. Experimental protocols were approved by the Animal Ethics Committee of the local institutional committee for animal use and care (McGill University, Qc, Canada). These protocols follow ethical guidelines for investigation of experimental pain in conscious animals of the IASP, the Canadian Institute of Health Research guidelines for animal care and scientific use.
Spared nerve injury (SNI). SNI was performed according to the method of Decosterd and Woolf^35. Rats were deeply anaesthetized with isofluorane (5%), anaesthesia was confirmed by the absence of a nociceptive reflex reaction to a paw pinch. The sciatic nerve was exposed at mid-thigh level distal to the trifurcation and freed of connective tissue; the three peripheral branches (sural, common peroneal, and tibial nerves) of the sciatic nerve were exposed without stretching nerve structures. Both tibial and common peroneal nerves were ligated and transected together. Carprofen (5 mg/kg) was administrated subcutaneously pre-surgery as well as three days every 24 hours post-surgery as analgesic. After SNI, each rat was housed in its home cage for 15 days until the neuropathy is developed.
EEG/EMG Implantation. Neuropathic rats (10 days after surgery) and naïve rats were placed in a stereotaxic frame following isoflurane-induced anesthesia (5%). Anaesthesia was confirmed by the absence of a nociceptive reflex reaction to a paw pinch. For EEG monitoring, three stainless-steel epidural electrodes were positioned through 1.5 mm burr holes: one over the parietal cortex on each side, and the third (as a reference) in the right prefrontal cortex. In rats, their respective locations relative to bregma were −2 mm anteroposterior (AP) and −3 mm lateral (L), −7 mm AP and −3 mm L, and −4.5 mm AP and +3 mm L, according to Paxinos and Watson. For EMG monitoring, three flexible stainless-steel wire electrodes, silicon insulation removed at the terminal 3-4 mm, were implanted into the neck muscles (two bilaterally and one in the middle). Wires were fused with the electrodes and the connectors were fixed to the skull with dental acrylic (Coltene/Whaledent). Carprofen (10mg/kg) was administrated subcutaneously pre-surgery as well as three days every 24 hours post-surgically as analgesic. Each rat was single-caged post-surgery and allowed to recover for the next 5 days^13. 24 hours after surgery, the rats were placed in the recording chamber and connected to a flexible 6-flat wire (3M Scotchflex™) in a freely moving manner for several hours during the subsequent 5 days. No recordings were performed, but tolerance to the cable and sleep behavior were observed. All rats from a home cage were also grouped for one hour each day for socialization to circumvent anxious-depressive-like behavior induced by social isolation^13.
Study design for EEG and EMG assessment. […] […] In another cohort of rats rimonabant (1 mg/kg) was also injected i.p. at 6 A.M. in neuropathic rats.
(§1) EEG and EMG recording. Six days after surgery (16 days post-SNI), mechanical allodynia was assessed via von Frey test, and EEG/EMG was recorded for a period of 6 h (from 6 AM to 12 PM). The treatments (described below) were performed at 6:00 A.M., right after the recording had started. […] Consecutive 10 s epochs were subjected to a fast Fourier transform (FFT), and EEG power spectra density was computed in the frequency range of 0-64 Hz^13.
Analysis of EEG and EMG data. The three classical vigilance states as described in the rat were discriminated on the basis of the cortical EEG and neck EMG activities. […]

[2] = tested on: rats; conditions: rat, in vivo; cited from earlier work
[3] = tested on: neuropathic rats; assay: EEG power spectra (delta, theta, sigma bands) during NREM and REM sleep; format: in vivo, male Wistar rats
Method: as §1
To determine the variations in power spectra induced by the pharmacological treatment of CBD and antagonists, the power densities were summed up over the frequency band of 0-25 Hz (total power). The data were then standardized by expressing all power spectral densities at the different 0.5 Hz bin frequency ranges (delta, theta, and sigma) as a percentage relative to the total power of the same epoch^16. Frequency ranges were 0-3.5Hz for delta, 4-8.5Hz for theta, and 11-14 Hz for sigma bands. The sum of power densities over a frequency band following treatments were expressed as the percentage difference from that in or naïve+veh or NP+vehicle group in statistical analysis. In the experiments with WAY 100635 the NP+CBD was compared with NP+vehicle, NP+WAY, NP+WAY+CBD.
To assess whether CBD (20 mg/kg) might affect the microarchitecture during the sleep, the intensity Delta (0.5-4 Hz), Theta ([…]) and Sigma (10-15 Hz) waves were measured during 6 hours of light phase in the 3 groups of rats (Naïve, SNI+VEH and SNI+CBD 20mg/kg). Data were converted as a percentage of variation vs. naive animals and One-way ANOVA was performed on the power of delta, theta and sigma waves during NREM and REN sleep.
To assess whether the 5-HT1A selective antagonist WAY 100635 (2 mg/kg) might reverse the effect of CBD (20 mg/kg) in the enhancement of power density (Delta, Theta, and Sigma waves) during sleep, the power spectra were measured for 6 hours in four groups of rats. The first group were NP rats treated with CBD vehicle (n=8), the second group were NP rats treated with WAY 100635 alone at 2 mg/kg (n=6), the third group were NP rats treated with WAY 100635 (2 mg/kg)+CBD (20 mg/kg; n=6), and the fourth group were NP treated with CBD at 20 mg/kg (n=8). Data were converted as a percentage of variation vs NP animals treated with vehicle.

[4] = 6 h EEG/EMG, i.p., CBD 20 mg/kg, rimonabant 1 mg/kg
[5] = NP rats, 6 h EEG/EMG, i.p., CBD 20 mg/kg, rimonabant 1 mg/kg
[6] = 6 h EEG/EMG, i.p., CBD 20 mg/kg
[7] = 6 h EEG/EMG, i.p., CBD 20 mg/kg, listed as WAY

In the case of `Cc1c(C(=O)NN2CCCCC2)nn(-c2ccc(Cl)cc2Cl)c1-c1ccc(Cl)cc1` [Rimonabant], the “REM sleep (total time), relative to NP rats treated with vehicle” value [1, 4] is reported as “Decrease the Time Spent in REM; also recorded: difference”, the “REM sleep (total time), relative to NP rats treated with vehicle” value ([1]; 6 h EEG/EMG, i.p., CBD 20 mg/kg, rimonabant 1 mg/kg, listed as rimonabant) is reported as “reduction of REM sleep time; also recorded: decreases REM sleep” and the “REM sleep, relative to naïve animals treated with vehicle” value [1, 5] is reported as “difference”. For the same molecule, the “wakefulness, relative to naïve animals treated with vehicle” value [1, 5] was “difference”, the “reversal of sleep perturbations induced by neuropathic pain (sleep-wake cycle)” value ([1]; NP rats, i.p., CBD 20 mg/kg, rimonabant 1 mg/kg) was “Does not Reverse the Sleep Perturbations” and the “time spent in NREM sleep” value [2] was “reducing the time spent in NREM sleep and REM sleep”. The “time spent in REM sleep” value [2] was “reducing the time spent in NREM sleep and REM sleep” and the “time spent in wakefulness” value [2] was “dose-dependently increased the time spent in wakefulness”.

For `COc1ccccc1N1CCN(CCN(C(=O)C2CCCCC2)c2ccccn2)CC1` [WAY 100635], the “power of Delta waves during REM sleep, between groups (ANOVA)” value ([3]; NP rats, 6 h, CBD 20 mg/kg, WAY 100635 2 mg/kg) was “no statistically significant differences between groups”, the “block of the theta power increase induced by CBD (20 mg/kg) on NREM sleep” value ([3]; NP rats, WAY 100635 2 mg/kg, p<0.0003) was “able to block the theta power increase induced by CBD” and the “block of the effects of CBD (20 mg/kg) on Sigma power during REM sleep” value ([3]; NP rats, WAY 100635 2 mg/kg, p<0.0019) was “blocks the effects of CBD”. The “block of the Delta power increase induced by CBD (20 mg/kg) on NREM sleep” value ([3]; NP rats, WAY 100635 2 mg/kg, p<0.0048) was “able to block the Delta power increase induced by CBD”, the “block of the positive effect of CBD (20 mg/kg) on theta waves during REM sleep” value ([3]; NP rats, WAY 100635 2 mg/kg, p<0.0061) was “able to block the positive effect of CBD” and the “intensity of Sigma waves during NREM sleep, relative to NP animals administered CBD 20 mg/kg” value ([3]; WAY 100635 2 mg/kg alone (p<0.038) or WAY 100635+CBD (p<0.0006)) was “differences were detected”. The “REM sleep, compared to NP rats treated with CBD 20 mg/kg” value ([1]; 6 h EEG/EMG, WAY 100635 alone i.p.) was “decrease in REM sleep”, the “total NREM sleep, relative to NP rats treated with vehicle” value [1, 6] was “statistically reduced the time spent NREM sleep” and the “total time of wakefulness, relative to NP rats treated with vehicle” value [1, 6] was “increase in wakefulness”. For the same molecule, the “total NREM sleep, relative to NP rats treated with vehicle” value [1, 7] was “impaired NREM sleep”, the “total time of wakefulness, relative to NP rats treated with vehicle” value [1, 7] was “increased wakefulness” and the “REM sleep (total time), relative to NP rats treated with vehicle” value [1, 4] was “no statistical difference was detected”. For the same molecule, the “total time of wakefulness, relative to NP rats treated with CBD 20 mg/kg” value ([1]; 6 h EEG/EMG, i.p., WAY 100635 2 mg/kg alone or 10 min before CBD 20 mg/kg) was “increase in wakefulness”, the “block of the positive effect of CBD (20 mg/kg) on REM sleep” value ([1]; NP rats, 6 h EEG/EMG, WAY 100635 (1 mg/kg) as printed, before CBD, p<0.001) was “able to block the positive effect of CBD” and the “block of the hypnotic effects of CBD (20 mg/kg)” value ([1]; NP rats) was “fully prevented”. The “block of the hypnotic effects of CBD (20 mg/kg)” value ([1]; NP rats, listed as WAY100635) was “Blocks the Hypnotic Effects of CBD”.
